# Key:
# Assay type in all cases: cell-based
# [1] = test system: cells; assay: MTT assay of cell viability after 24 hours topical application; set-up: cell viability: dose or concentration left out as unconfirmed
# Protocol: Test materials were applied topically for 24 hours and an MTT assay was used to check the viability of cells.
# The relative results are provided in the following Table A, with the untreated group defining 100% viability, and shown in FIG. 1. * indicates p≤0.05 and ** indicates p≤0.01 statistical significance after performing unpaired t-test.
# [2] = test system: APOB; assay: qPCR gene expression in tissues treated topically, APOB; conditions: topical, without radiation exposure
# Protocol: (§1) Next, changes in gene expression were measured in tissues treated topically with the formulations (without radiation exposure) using qPCR. […] Five genes were examined: APOB, CSF2, IL24, MT1F, and MT1G.
# (§2) Statistical significance was determined using unpaired t-test, P<0.05, N=3, and are indicated in bold. The results are provided in Table B in both linear fold change values (FC) and in percent change.
# [3] = test system: CSF2; assay: qPCR gene expression in tissues treated topically, CSF2; conditions: topical, without radiation exposure
# Protocol: as §1, §2
# [4] = test system: IL24; assay: qPCR gene expression in tissues treated topically, IL24; conditions: topical, without radiation exposure
# Protocol: (§3) Next, changes in gene expression were measured in tissues treated topically with the formulations (without radiation exposure) using qPCR. This provides evidence that the CBD is being absorbed by the tissues. Five genes were examined: APOB, CSF2, IL24, MT1F, and MT1G.
# as §2, with “change. It is noted that changes in gene expression in general were only seen in the treatments where CBD was used.” for “change.”
# [5] = test system: MT1F; assay: qPCR gene expression in tissues treated topically, MT1F; conditions: topical, without radiation exposure
# Protocol: as §3
# as §2, with “change. It is noted that changes in gene expression in general were only seen in the treatments where CBD was used.” for “change.”
# [6] = test system: MT1G; assay: qPCR gene expression in tissues treated topically, MT1G; conditions: topical, without radiation exposure
# Protocol: as §3
# as §2, with “change. It is noted that changes in gene expression in general were only seen in the treatments where CBD was used.” for “change.”
molecule,measurement,setting,value
Triton-X,Relative Viability,"[1]; positive control, topical 24 hours, untreated = 100%",3%
"C=C(C)[C@@H]1CCC(C)=C[C@H]1c1c(O)cc(CCCCC)cc1O [CBD, 2-[(1R,6R)-6-Isopropenyl-3-methylcyclohex-2-en-1-yl]-5-pentylbenzene-1,3-diol]",cell viability,[1],significant increase
same,"APOB gene expression, % Δ (percent change)",[2]; 1 mg/mL CBD,23%
same,"APOB gene expression, FC (linear fold change)",[2]; 1 mg/mL CBD,1.23
same,"APOB gene expression, % Δ (percent change)",[2]; 10 mg/mL CBD,0%
same,"APOB gene expression, FC (linear fold change)",[2]; 10 mg/mL CBD,1.00
same,"APOB gene expression, % Δ (percent change)",[2]; 30 mg/mL CBD,−16%
same,"APOB gene expression, FC (linear fold change)",[2]; 30 mg/mL CBD,−1.19
same,"APOB gene expression, % Δ (percent change)",[2]; 60 mg/mL CBD,51%
same,"APOB gene expression, % Δ (percent change)",[2]; 120 mg/mL CBD,−9%
same,"APOB gene expression, FC (linear fold change)",[2]; 120 mg/mL CBD,−1.10
same,"APOB gene expression, % Δ (percent change)",[2]; 250 mg/mL CBD,−60%
same,"APOB gene expression, FC (linear fold change)",[2]; 250 mg/mL CBD,−2.48
same,"APOB gene expression, % Δ (percent change)",[2]; 500 mg/mL CBD,−96%
same,"APOB gene expression, FC (linear fold change)",[2]; 500 mg/mL CBD,−22.22
same,"APOB gene expression, % Δ (percent change)",[2]; 750 mg/mL CBD,−96%
same,"APOB gene expression, FC (linear fold change)",[2]; 750 mg/mL CBD,−25.64
same,"CSF2 gene expression, % Δ (percent change)",[3]; 1 mg/mL CBD,117%
same,"CSF2 gene expression, % Δ (percent change)",[3]; 10 mg/mL CBD,118%
same,"CSF2 gene expression, % Δ (percent change)",[3]; 30 mg/mL CBD,−19%
same,"CSF2 gene expression, % Δ (percent change)",[3]; 60 mg/mL CBD,186%
same,"CSF2 gene expression, % Δ (percent change)",[3]; 120 mg/mL CBD,448%
same,"CSF2 gene expression, % Δ (percent change)",[3]; 250 mg/mL CBD,763%
same,"CSF2 gene expression, % Δ (percent change)",[3]; 500 mg/mL CBD,−30%
same,"CSF2 gene expression, % Δ (percent change)",[3]; 750 mg/mL CBD,93%
same,"IL24 gene expression, % Δ (percent change)",[4]; 1 mg/mL CBD,55%
same,"IL24 gene expression, % Δ (percent change)",[4]; 10 mg/mL CBD,48%
same,"IL24 gene expression, % Δ (percent change)",[4]; 30 mg/mL CBD,−70%
same,"IL24 gene expression, % Δ (percent change)",[4]; 60 mg/mL CBD,−11%
same,"IL24 gene expression, % Δ (percent change)",[4]; 120 mg/mL CBD,63%
same,"IL24 gene expression, % Δ (percent change)",[4]; 250 mg/mL CBD,59%
same,"IL24 gene expression, % Δ (percent change)",[4]; 500 mg/mL CBD,−6%
same,"IL24 gene expression, % Δ (percent change)",[4]; 750 mg/mL CBD,54%
same,"MT1F gene expression, % Δ (percent change)",[5]; 1 mg/mL CBD,147%
same,"MT1F gene expression, % Δ (percent change)",[5]; 10 mg/mL CBD,40%
same,"MT1F gene expression, % Δ (percent change)",[5]; 30 mg/mL CBD,−65%
same,"MT1F gene expression, % Δ (percent change)",[5]; 60 mg/mL CBD,134%
same,"MT1F gene expression, % Δ (percent change)",[5]; 120 mg/mL CBD,602%
same,"MT1F gene expression, % Δ (percent change)",[5]; 250 mg/mL CBD,2163%
same,"MT1F gene expression, % Δ (percent change)",[5]; 500 mg/mL CBD,3963%
same,"MT1F gene expression, % Δ (percent change)",[5]; 750 mg/mL CBD,2971%
same,"MT1G gene expression, % Δ (percent change)",[6]; 1 mg/mL CBD,−41%
same,"MT1G gene expression, % Δ (percent change)",[6]; 10 mg/mL CBD,−4%
same,"MT1G gene expression, % Δ (percent change)",[6]; 30 mg/mL CBD,92%
same,"MT1G gene expression, % Δ (percent change)",[6]; 60 mg/mL CBD,2526%
same,"MT1G gene expression, % Δ (percent change)",[6]; 120 mg/mL CBD,5186%
same,"MT1G gene expression, % Δ (percent change)",[6]; 250 mg/mL CBD,13439%
same,"MT1G gene expression, % Δ (percent change)",[6]; 500 mg/mL CBD,33439%
same,"MT1G gene expression, % Δ (percent change)",[6]; 750 mg/mL CBD,23223%

# Source: patent US20230039887A1, “COMPOSITIONS FOR TOPICAL TREATMENT OF RADIATION DERMATITIS” (priority 2021, published 2023)
